The numbers were not newly measured in US10220017B2, “Liquid pharmaceutical compositions comprising SGLT-2 inhibitors” (Boehringer Ingelheim Vetmedica GmbH, priority 2015, dated 2019), which cites them from elsewhere.

The conditions of this data set: n-octanol/water; values taken from http://www.chemicalize.org/.
`CCO` [ethanol]: the log10P is −0.16.
With `OCC(O)CO` [propane-1,2,3-triol], the log10P is listed as −1.84.
As for `CC(O)CO` (stereo not drawn) [propane-1,2-diol], the log10P is −0.79.
